Assay [1] deals with IL-2 secretion from T cells in human whole blood. It counts as cell-based.
Assay [2] has as its system IFN-g secretion from T cells in human whole blood. It counts as cell-based.
Where [3] appears, read: read-out: WB (IL-2) IC50 (nM, Avg).
Where [4] appears, read: read-out: WB (IFNg) IC50 (nM, Avg).

Like-named read-outs stand apart in the source and are kept apart here.

The source of these data is patent US20120121591A1 (priority 2009, published 2012).

One may read the IC50 as the midpoint of a concentration-inhibition curve. For the compound `CC[C@H](C)[C@@H]1NC(=O)[C@@H](NC(=O)[C@H](CO)NC(=O)[C@@H](N)CCCNC(=N)N)CSSC[C@@H](C(=O)O)NC(=O)[C@H]([C@@H](C)O)NC(=O)CNC(=O)[C@@H]2CSSC[C@@H]3NC(=O)[C@H](CCC(N)=O)NC(=O)[C@H](Cc4ccccc4)NC(=O)[C@H](C)NC(=O)[C@H]([C@@H](C)O)NC(=O)[C@H](CSSC[C@H](NC(=O)[C@H](Cc4ccccc4)NC(=O)[C@H](CO)NC(=O)[C@H](CC(C)C)NC(=O)[C@H](CCCNC(=N)N)NC(=O)[C@H](Cc4ccc(O)cc4)NC(=O)[C@H](CCCCN)NC(=O)[C@H](CCSC)NC(=O)[C@H](CO)NC(=O)[C@H](Cc4c[nH]cn4)NC(=O)[C@H](CCCCN)NC3=O)C(=O)N[C@@H](CCCNC(=N)N)C(=O)N[C@@H](CCCCN)C(=O)N[C@@H]([C@@H](C)O)C(=O)N2)NC(=O)[C@H](CCCNC(=N)N)NC(=O)[C@H](CO)NC(=O)[C@H](CCCCN)NC(=O)[C@@H]2CCCN2C(=O)[C@H]([C@@H](C)CC)NC(=O)[C@H]([C@@H](C)O)NC(=O)[C@H](CC(=O)O)NC1=O` [ShK(1-35), reference compound], the IC50 amounted to 0.067 nM in assay [1] (read-out: WB (IL-2) IC50), 0.043 nM in assay [1] (setting [3]), 0.078 nM in assay [2] (read-out: WB (IFNg) IC50) and 0.052 nM in assay [2] (setting [4]). Regarding `CC[C@H](C)[C@@H]1NC(=O)[C@@H](NC(=O)[C@H](CO)NC(=O)[C@@H](N)CCCNC(=N)N)CSSC[C@@H](C(=O)O)NC(=O)[C@H]([C@@H](C)O)NC(=O)CNC(=O)[C@@H]2CSSC[C@@H]3NC(=O)[C@H](CCC(N)=O)NC(=O)[C@H](Cc4ccccc4)NC(=O)[C@H](C)NC(=O)[C@H](Cc4cccc5ccccc45)NC(=O)[C@H](CSSC[C@H](NC(=O)[C@H](Cc4ccccc4)NC(=O)[C@H](CO)NC(=O)[C@H](CC(C)C)NC(=O)[C@H](CCCNC(=N)N)NC(=O)[C@H](Cc4ccc(O)cc4)NC(=O)[C@H](CCCCN)NC(=O)[C@H](CCSC)NC(=O)[C@H](CO)NC(=O)[C@H](Cc4c[nH]cn4)NC(=O)[C@H](CCCCN)NC3=O)C(=O)N[C@@H](CCCNC(=N)N)C(=O)N[C@@H](CCCCN)C(=O)N[C@@H]([C@@H](C)O)C(=O)N2)NC(=O)[C@H](CCCNC(=N)N)NC(=O)[C@H](CO)NC(=O)[C@H](CCCCN)NC(=O)[C@@H]2CCCN2C(=O)[C@H]([C@@H](C)CC)NC(=O)[C@H]([C@@H](C)O)NC(=O)[C@H](CC(=O)O)NC1=O` [[1-Nal13]ShK], the IC50 stood at 3.56 nM in assay [1] (setting [3]) and 4.86 nM in assay [2] (setting [4]). The like results for `CC[C@H](C)[C@@H]1NC(=O)[C@@H](NC(=O)[C@H](CO)NC(=O)[C@@H](N)CCCNC(=N)N)CSSC[C@@H](C(=O)O)NC(=O)[C@H]([C@@H](C)O)NC(=O)CNC(=O)[C@@H]2CSSC[C@@H]3NC(=O)[C@H](CCC(N)=O)NC(=O)[C@H](Cc4ccccc4)NC(=O)[C@H](C)NC(=O)[C@H]([C@@H](C)O)NC(=O)[C@H](CSSC[C@H](NC(=O)[C@H](Cc4ccccc4)NC(=O)[C@H](CO)NC(=O)[C@H](CC(C)C)NC(=O)[C@H](CCCNC(=N)N)NC(=O)[C@H](Cc4ccc(O)cc4)NC(=O)[C@H](CCCCN)NC(=O)[C@H](CCSC)NC(=O)[C@H](CO)NC(=O)[C@H](Cc4c[nH]cn4)NC(=O)[C@H](CCCCN)NC3=O)C(=O)N[C@@H](CCCNC(=N)N)C(=O)N[C@@H](Cc3cccc4ccccc34)C(=O)N[C@@H]([C@@H](C)O)C(=O)N2)NC(=O)[C@H](CCCNC(=N)N)NC(=O)[C@H](CO)NC(=O)[C@H](CCCCN)NC(=O)[C@@H]2CCCN2C(=O)[C@H]([C@@H](C)CC)NC(=O)[C@H]([C@@H](C)O)NC(=O)[C@H](CC(=O)O)NC1=O` [[1-Nal30]ShK] were, in that order, 0.082 nM and 0.148 nM. The like results for `CC[C@H](C)[C@@H]1NC(=O)[C@@H](NC(=O)[C@H](CO)NC(=O)[C@@H](N)CCCNC(=N)N)CSSC[C@@H](C(=O)O)NC(=O)[C@H]([C@@H](C)O)NC(=O)CNC(=O)[C@@H]2CSSC[C@@H]3NC(=O)[C@H](CCC(N)=O)NC(=O)[C@H](Cc4ccccc4)NC(=O)[C@H](C)NC(=O)[C@H]([C@@H](C)O)NC(=O)[C@H](CSSC[C@H](NC(=O)[C@H](Cc4ccccc4)NC(=O)[C@H](CO)NC(=O)[C@H](CC(C)C)NC(=O)[C@H](CCCNC(=N)N)NC(=O)[C@H](Cc4ccc(O)cc4)NC(=O)[C@H](CCCCN)NC(=O)[C@H](CCSC)NC(=O)[C@H](CO)NC(=O)[C@H](Cc4c[nH]cn4)NC(=O)[C@H](CCCCN)NC3=O)C(=O)N[C@@H](CCCNC(=N)N)C(=O)N[C@@H](CCCCN)C(=O)N[C@@H]([C@@H](C)O)C(=O)N2)NC(=O)[C@H](C)NC(=O)[C@H](CO)NC(=O)[C@H](CCCCN)NC(=O)[C@@H]2CCCN2C(=O)[C@H]([C@@H](C)CC)NC(=O)[C@H]([C@@H](C)O)NC(=O)[C@H](CC(=O)O)NC1=O` [[Ala11]ShK] were, in that order, 1.24 nM and 1.9 nM. The like results for `CC[C@H](C)[C@@H]1NC(=O)[C@@H](NC(=O)[C@H](CO)NC(=O)[C@@H](N)CCCNC(=N)N)CSSC[C@@H](C(=O)O)NC(=O)[C@H]([C@@H](C)O)NC(=O)CNC(=O)[C@@H]2CSSC[C@@H]3NC(=O)[C@H](CCC(N)=O)NC(=O)[C@H](Cc4ccccc4)NC(=O)[C@H](C)NC(=O)[C@H](C)NC(=O)[C@H](CSSC[C@H](NC(=O)[C@H](Cc4ccccc4)NC(=O)[C@H](CO)NC(=O)[C@H](CC(C)C)NC(=O)[C@H](CCCNC(=N)N)NC(=O)[C@H](Cc4ccc(O)cc4)NC(=O)[C@H](CCCCN)NC(=O)[C@H](CCSC)NC(=O)[C@H](CO)NC(=O)[C@H](Cc4c[nH]cn4)NC(=O)[C@H](CCCCN)NC3=O)C(=O)N[C@@H](CCCNC(=N)N)C(=O)N[C@@H](CCCCN)C(=O)N[C@@H]([C@@H](C)O)C(=O)N2)NC(=O)[C@H](CCCNC(=N)N)NC(=O)[C@H](CO)NC(=O)[C@H](CCCCN)NC(=O)[C@@H]2CCCN2C(=O)[C@H]([C@@H](C)CC)NC(=O)[C@H]([C@@H](C)O)NC(=O)[C@H](CC(=O)O)NC1=O` [[Ala13]ShK] were, in that order, 0.582 nM and 0.954 nM.

On to `CC[C@H](C)[C@@H]1NC(=O)[C@@H](NC(=O)[C@H](CO)NC(=O)[C@@H](N)CCCNC(=N)N)CSSC[C@@H](C(=O)O)NC(=O)[C@H]([C@@H](C)O)NC(=O)CNC(=O)[C@@H]2CSSC[C@@H]3NC(=O)[C@H](C)NC(=O)[C@H](Cc4ccccc4)NC(=O)[C@H](C)NC(=O)[C@H]([C@@H](C)O)NC(=O)[C@H](CSSC[C@H](NC(=O)[C@H](Cc4ccccc4)NC(=O)[C@H](CO)NC(=O)[C@H](CC(C)C)NC(=O)[C@H](CCCNC(=N)N)NC(=O)[C@H](Cc4ccc(O)cc4)NC(=O)[C@H](CCCCN)NC(=O)[C@H](CCSC)NC(=O)[C@H](CO)NC(=O)[C@H](Cc4c[nH]cn4)NC(=O)[C@H](CCCCN)NC3=O)C(=O)N[C@@H](CCCNC(=N)N)C(=O)N[C@@H](CCCCN)C(=O)N[C@@H]([C@@H](C)O)C(=O)N2)NC(=O)[C@H](CCCNC(=N)N)NC(=O)[C@H](CO)NC(=O)[C@H](CCCCN)NC(=O)[C@@H]2CCCN2C(=O)[C@H]([C@@H](C)CC)NC(=O)[C@H]([C@@H](C)O)NC(=O)[C@H](CC(=O)O)NC1=O` [[Ala16]ShK], for which the IC50 was found to be 0.058 nM in assay [1] (setting [3]) and 0.078 nM in assay [2] (setting [4]). Turning to `CC[C@H](C)[C@@H]1NC(=O)[C@@H](NC(=O)[C@H](CO)NC(=O)[C@@H](N)CCCNC(=N)N)CSSC[C@@H](C(=O)O)NC(=O)[C@H]([C@@H](C)O)NC(=O)CNC(=O)[C@@H]2CSSC[C@@H]3NC(=O)[C@H](CCC(N)=O)NC(=O)[C@H](Cc4ccccc4)NC(=O)[C@H](C)NC(=O)[C@H]([C@@H](C)O)NC(=O)[C@H](CSSC[C@H](NC(=O)[C@H](Cc4ccccc4)NC(=O)[C@H](CO)NC(=O)[C@H](CC(C)C)NC(=O)[C@H](CCCNC(=N)N)NC(=O)[C@H](Cc4ccc(O)cc4)NC(=O)[C@H](CCCCN)NC(=O)[C@H](CCSC)NC(=O)[C@H](CO)NC(=O)[C@H](Cc4c[nH]cn4)NC(=O)[C@H](CCCCN)NC3=O)C(=O)N[C@@H](CCCNC(=N)N)C(=O)N[C@@H](CCCCN)C(=O)N[C@@H]([C@@H](C)O)C(=O)N2)NC(=O)[C@H](CCCCN)NC(=O)[C@H](CO)NC(=O)[C@H](CCCCN)NC(=O)[C@@H]2CCCN2C(=O)[C@H]([C@@H](C)CC)NC(=O)[C@H]([C@@H](C)O)NC(=O)[C@H](CC(=O)O)NC1=O` [[Lys11]ShK], the IC50 in assay [1] (setting [3]) was determined as 0.095 nM. Regarding `CC[C@H](C)[C@@H]1NC(=O)[C@@H](NC(=O)[C@H](CO)NC(=O)[C@@H](N)CCCNC(=N)N)CSSC[C@@H](C(N)=O)NC(=O)[C@H]([C@@H](C)O)NC(=O)CNC(=O)[C@@H]2CSSC[C@@H]3NC(=O)[C@H](CCCCN)NC(=O)[C@H](Cc4ccccc4)NC(=O)[C@H](C)NC(=O)[C@H]([C@@H](C)O)NC(=O)[C@H](CSSC[C@H](NC(=O)[C@H](Cc4ccccc4)NC(=O)[C@H](CO)NC(=O)[C@H](CC(C)C)NC(=O)[C@H](CCCNC(=N)N)NC(=O)[C@H](Cc4ccc(O)cc4)NC(=O)[C@H](CCCCN)NC(=O)[C@H](CCSC)NC(=O)[C@H](CO)NC(=O)[C@H](Cc4c[nH]cn4)NC(=O)[C@H](CCCCN)NC3=O)C(=O)N[C@@H](CCCNC(=N)N)C(=O)N[C@@H](CCCCN)C(=O)N[C@@H]([C@@H](C)O)C(=O)N2)NC(=O)[C@H](CCCNC(=N)N)NC(=O)[C@H](CO)NC(=O)[C@H](CCCCN)NC(=O)[C@@H]2CCCN2C(=O)[C@H]([C@@H](C)CC)NC(=O)[C@H]([C@@H](C)O)NC(=O)[C@H](CC(=O)O)NC1=O` [[Lys16]ShK-amide], the half-maximal inhibitory concentration (IC50) in assay [1] (read-out: WB (IL-2) IC50) is 0.1 nM. Take `CC[C@H](C)[C@@H]1NC(=O)[C@@H](NC(=O)[C@H](CO)NC(=O)[C@@H](N)CCCNC(=N)N)CSSC[C@@H](C(=O)O)NC(=O)[C@H]([C@@H](C)O)NC(=O)CNC(=O)[C@@H]2CSSC[C@@H]3NC(=O)[C@H](CCC(N)=O)NC(=O)[C@H](Cc4ccccc4)NC(=O)[C@H](C)NC(=O)[C@H]([C@@H](C)O)NC(=O)[C@H](CSSC[C@H](NC(=O)[C@H](Cc4ccccc4)NC(=O)[C@H](CO)NC(=O)[C@H](CC(C)C)NC(=O)[C@H](CCCCN)NC(=O)[C@H](Cc4ccc(O)cc4)NC(=O)[C@H](CCCCN)NC(=O)[C@H](CCSC)NC(=O)[C@H](CO)NC(=O)[C@H](Cc4c[nH]cn4)NC(=O)[C@H](CCCCN)NC3=O)C(=O)N[C@@H](CCCNC(=N)N)C(=O)N[C@@H](CCCCN)C(=O)N[C@@H]([C@@H](C)O)C(=O)N2)NC(=O)[C@H](CCCNC(=N)N)NC(=O)[C@H](CO)NC(=O)[C@H](CCCCN)NC(=O)[C@@H]2CCCN2C(=O)[C@H]([C@@H](C)CC)NC(=O)[C@H]([C@@H](C)O)NC(=O)[C@H](CC(=O)O)NC1=O` [[Lys24]ShK]: the IC50 in assay [1] (setting [3]) is 0.044 nM. With “Fc.L20FcLoopShk (scFc): single-chain Fc with ShK inserted in the second Fc domain, 20-residue linker”, the concentration for half-maximal inhibition (IC50) in assay [1] (read-out: In Vitro IC50, whole blood assay (inhibition of IL-2), average results) was 2.01 nM.
